Results as given in the NIST ThermoML archive (doi:10.1021/je501141e).
“And” between values parts separate entries of the source, which are not always exact repeats. Equal entries are not always repeated.

Key:
[1] = 101.33 kPa, Liquid; for viscosity: Concentric cylinders viscometry; for speed of sound: Sing-around technique in a fixed-path interferometer; for mass density: Vibrating tube method
[2] = xn = mol fraction of the nth substance listed; details: 100 kPa, Liquid, Concentric cylinders viscometry, x2 = 0

CC(CC(C)(C)C)CC(C)(C)CC(C)(C)C (configuration not stated) [2,2,4,4,6,8,8-heptamethylnonane]
[1]
Details | mass density [kg/m3] | speed of sound [m/s] | viscosity
293.15 K | 784.48 | 1285.8 | 3.71 mPa·s
303.15 K | 777.78 | 1248.6 | 2.93 mPa·s
313.15 K | 771.07 | 1212 | 2.37 mPa·s
323.15 K | 764.34 | 1176.2 | 1.95 mPa·s
333.15 K | 757.59 | 1141 | 1.64 mPa·s
343.15 K | 750.83 | 1106.5 | 1.39 mPa·s
353.15 K | 743.9 | – | 1.19 mPa·s
363.15 K | 737 | – | 1.04 mPa·s
373.15 K | 730.2 | – | 0.91 mPa·s and 0.913 mPa·s

CC(CC(C)(C)C)CC(C)(C)C [2,2,4,6,6-pentamethylheptane]
[1]
Details | mass density [kg/m3] | speed of sound [m/s] | viscosity
293.15 K | 745.21 | 1203.7 | 1.31 mPa·s
303.15 K | 737.93 | 1164.9 | 1.11 mPa·s
313.15 K | 730.61 | 1126.7 | 0.94 mPa·s and 0.948 mPa·s
323.15 K | 723.26 | 1089.3 | 0.82 mPa·s
333.15 K | 715.86 | 1052.6 | 0.715 mPa·s and 0.71 mPa·s
343.15 K | 708.42 | 1016.5 | 0.632 mPa·s and 0.63 mPa·s
353.15 K | 700.7 | – | 0.562 mPa·s and 0.56 mPa·s
363.15 K | 693.1 | – | 0.505 mPa·s and 0.5 mPa·s
373.15 K | 685.4 | – | 0.459 mPa·s and 0.45 mPa·s

CC(CC(C)(C)C)CC(C)(C)C [2,2,4,6,6-pentamethylheptane] + CC(CC(C)(C)C)CC(C)(C)CC(C)(C)C
[2]
Details | viscosity [mPa·s]
293.15 K | 1.31
303.15 K | 1.11
313.15 K | 0.948
323.15 K | 0.82
333.15 K | 0.715
343.15 K | 0.632
353.15 K | 0.562
363.15 K | 0.505
373.15 K | 0.459
